The results in this text go back to patent US20200338084A1, “INHIBITORS OF LOW MOLECULAR WEIGHT PROTEIN TYROSINE PHOSPHATASE (LMPTP) AND USES THEREOF” (Sanford Burnham Prebys Medical Discovery Institute, priority 2018, published 2020).

The target of this test is T1, human LMPTP-A (Homo sapiens, UniProt P24666).
T1 sequence (P24666 1-158): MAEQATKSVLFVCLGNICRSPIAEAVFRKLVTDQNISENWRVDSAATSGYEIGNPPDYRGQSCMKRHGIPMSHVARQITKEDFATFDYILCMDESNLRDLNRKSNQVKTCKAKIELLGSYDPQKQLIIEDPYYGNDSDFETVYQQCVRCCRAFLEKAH
The test is described as follows: Enzyme Assay of Inhibition of LMPTP-A. It is filed as biochemical. Particulars: phosphatase assay, OMFP or pNPP substrate, 50 mM Bis-Tris pH 6.0, 37° C. The gist of the method: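 Recombinant human LMPTP-A in 50 mM Bis-Tris pH 6.0, 1 mM DTT, 0.01% Triton X-100 at 37° C. Substrate OMFP read continuously by fluorescence (485/525 nm), or pNPP stopped with NaOH and read at 405 nm. IC50 taken from inhibitor concentration versus % activity plots.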

Usually IC50 stands for the concentration that gives 50% inhibition. The low end stands for greater potency, the high end for weaker potency. `CN(C)C(=O)c1ccc(Nc2ncn(Cc3c(Cl)cccc3Cl)c3ncnc2-3)cc1` [4-((3-(2,6-Dichlorobenzyl)-3H-purin-6-yl)amino)-N,N-dimethylbenzamide] showed a half-maximal inhibitory concentration (IC50) of 1 to 20 µM.
For `N#Cc1ccc(Cn2cnc(N)c3ncnc2-3)cc1` [4-((6-amino-3H-purin-3-yl)methyl)benzonitrile] the value was 1 to 20 µM; for `N#Cc1ccc(Nc2ncn(Cc3c(Cl)cccc3Cl)c3ncnc2-3)cc1` [4-({3-[(2,6-Dichlorophenyl)methyl]-3-hydropurin-6-yl}amino)benzenecarbonitrile], 1 to 20 µM.
Consider `O=C(O)c1ccc(Nc2ncn(Cc3c(Cl)cccc3Cl)c3ncnc2-3)cc1` [4-({3-[(2,6-Dichlorophenyl)methyl]-3-hydropurin-6-yl}amino)benzoic acid], for which the half-inhibitory concentration (IC50) is 1 to 20 µM.
With `Oc1ccc(Nc2ncn(Cc3c(Cl)cccc3Cl)c3ncnc2-3)cc1` [4-({3-[(2,6-Dichlorophenyl)methyl]-3-hydropurin-6-yl}amino)phenol] the figure was 1 to 20 µM; with `N#Cc1ccc(CNc2ncn(Cc3c(Cl)cccc3Cl)c3ncnc2-3)cc1` [4-[({3-[(2,6-dichlorophenyl)methyl]-3-hydropurin-6-yl}amino)methyl]benzenecarbonitrile], 1 to 20 µM; with `N#Cc1ccc(-c2nc3c(N)ncn(Cc4c(Cl)cccc4Cl)c-3n2)cc1` [4-{6-Amino-3-[(2,6-dichlorophenyl)methyl]-3-hydropurin-8-yl}benzenecarbonitrile], no more than 1 µM.
With `Nc1ncn(Cc2c(Cl)cccc2Cl)c2nc(C3CCS(=O)(=O)CC3)nc1-2` [4-{6-Amino-3-[(2,6-dichlorophenyl)methyl]-3-hydropurin-8-yl}thiane-1,1-dione] the figure was no more than 1 µM.
`N#Cc1ccc(Cn2cnc(NCc3ccco3)c3ncnc2-3)cc1` [4-{6-[(Furan-2-ylmethyl)-amino]-purin-3-ylmethyl}-benzonitrile] had an IC50 of no less than 20 µM.
For `N#Cc1ccc(-c2nc3c(N)ncn(Cc4c(Cl)cccc4Cl)c-3n2)s1` [5-(6-amino-3-(2,6-dichlorobenzyl)-3H-purin-8-yl)thiophene-2-carbonitrile] the value was no more than 1 µM; for `Nc1ncn(Cc2c(Cl)cccc2Cl)c2nc(/C=C/c3ccccc3)nc1-2` [8-((1E)-2-Phenylvinyl)-3-[(2,6-dichlorophenyl)methyl]-3-hydropurine-6-ylamine], no more than 1 µM; for `Nc1ncn(Cc2c(Cl)cccc2Cl)c2nc(C3C4CC5CC(C4)CC3C5)nc1-2` (stereo not drawn) [8-Adamantan-2-yl-3-[(2,6-dichlorophenyl)methyl]-3-hydropurine-6-ylamine], no more than 1 µM.
On to `Nc1ncn(Cc2c(Cl)cccc2Cl)c2nc(-c3ccc4scnc4c3)nc1-2` [8-Benzothiazol-5-yl-3-[(2,6-dichlorophenyl)methyl]-3-hydropurine-6-ylamine], for which the half-maximal inhibitory concentration (IC50) was no more than 1 µM.
For `Nc1ncn(Cc2c(Cl)cccc2Cl)c2nc(-c3ccc4ocnc4c3)nc1-2` [8-Benzoxazol-5-yl-3-[(2,6-dichlorophenyl)methyl]-3-hydropurine-6-ylamine] the value was no more than 1 µM; for `Clc1cccc(Nc2ncn(Cc3c(Cl)cccc3Cl)c3ncnc2-3)c1Cl` [(2,3-Dichlorophenyl){3-[(2,6-dichlorophenyl)methyl](3-hydropurin-6-yl)}amine], 1 to 20 µM.
Consider `NCCNc1ncn(Cc2c(Cl)cccc2Cl)c2ncnc1-2` [(2-Aminoethyl){3-[(2,6-dichlorophenyl)methyl](3-hydropurin-6-yl)}amine], for which the half-inhibitory concentration (IC50) is no less than 20 µM.
With `c1ccc(-n2cnc(NCc3ccco3)c3ncnc2-3)cc1` [(2-Furylmethyl)(3-phenyl(3-hydropurin-6-yl))amine] the figure was no less than 20 µM; with `NCCCCNc1ncn(Cc2c(Cl)cccc2Cl)c2ncnc1-2` [(4-Aminobutyl){3-[(2,6-dichlorophenyl)methyl](3-hydropurin-6-yl)}amine], 1 to 20 µM; with `Clc1cccc(Cl)c1Cn1cnc(NCc2ccccc2)c2ncnc1-2` [Benzyl-[3-(2,6-dichloro-benzyl)-3H-purin-6-yl]-amine], 1 to 20 µM.
With `CCCCNc1ncn(Cc2c(Cl)cccc2Cl)c2ncnc1-2` [Butyl-[3-(2,6-dichloro-benzyl)-3H-purin-6-yl]-amine] the figure was 1 to 20 µM.
In turn, `Clc1cccc(Cl)c1Cn1cnc(NC2CC2)c2ncnc1-2` [Cyclopropyl-[3-(2,6-dichloro-benzyl)-3H-purin-6-yl]-amine] had a half-maximal inhibitory concentration (IC50) of 1 to 20 µM.
With `O=C(Nc1ncn(Cc2c(Cl)cccc2Cl)c2ncnc1-2)c1ccco1` [Furan-2-carboxylicacid [3-(2,6-dichloro-benzyl)-3H-purin-6-yl]-amide] the figure was 1 to 20 µM; with `Fc1ccc(F)c(Cn2cnc(NCc3ccco3)c3ncnc2-3)c1F` [Furan-2-ylmethyl-[3-(2,3,6-trifluoro-benzyl)-3H-purin-6-yl]-amine], no less than 20 µM.
For `COc1ccccc1Cn1cnc(NCc2ccco2)c2ncnc1-2` [Furan-2-ylmethyl-[3-(2-methoxy-benzyl)-3H-purin-6-yl]-amine] the value was no less than 20 µM.
The compound `Cc1ccccc1Cn1cnc(NCc2ccco2)c2ncnc1-2` [Furan-2-ylmethyl-[3-(2-methyl-benzyl)-3H-purin-6-yl]-amine] showed an IC50 of no less than 20 µM.
For `COc1ccc(Cn2cnc(NCc3ccco3)c3ncnc2-3)cc1` [Furan-2-ylmethyl-[3-(4-methoxy-benzyl)-3H-purin-6-yl]-amine] the value was no less than 20 µM; for `COC(=O)c1cccc(Nc2ncn(Cc3c(Cl)cccc3Cl)c3ncnc2-3)c1` [Methyl 3-({3-[(2,6-dichlorophenyl)methyl]-3-hydropurin-6-yl}amino)benzoate], 1 to 20 µM; for `COC(=O)c1ccc(Nc2ncn(Cc3c(Cl)cccc3Cl)c3ncnc2-3)cc1` [Methyl 4-({3-[(2,6-dichlorophenyl)methyl]-3-hydropurin-6-yl}amino)benzoate], 1 to 20 µM.
In turn, `CN(C)c1ccc(Nc2ncn(Cc3c(Cl)cccc3Cl)c3ncnc2-3)cc1` [N1-(3-(2,6-dichlorobenzyl)-3H-purin-6-yl)-N4,N4-dimethylbenzene-1,4-diamine] displayed an IC50 of 1 to 20 µM.
With `CS(=O)(=O)Nc1ncn(Cc2c(Cl)cccc2Cl)c2ncnc1-2` [N-(3-(2,6-dichlorobenzyl)-3h-purin-6-yl)methanesulfonamide] the figure was no less than 20 µM.
For `Clc1cccc(Cl)c1Cn1cnc(Nc2cccc(OCc3ccccc3)c2)c2ncnc1-2` [N-(3-(benzyloxy)phenyl)-3-(2,6-dichlorobenzyl)-3H-purin-6-amine], the IC50 was in the range of 1 to 20 µM.
For `Cc1c(Cl)cccc1Nc1ncn(Cc2c(Cl)cccc2Cl)c2ncnc1-2` [N-(3-Chloro-2-methylphenyl)-3-(2,6-dichlorobenzyl)-3H-purin-6-amine] the value was 1 to 20 µM; for `Clc1ccc(CNc2ncn(Cc3c(Cl)cccc3Cl)c3ncnc2-3)cc1` [N-(4-chlorobenzyl)-3-(2,6-dichlorobenzyl)-3h-purin-6-amine], 1 to 20 µM.
The compound `CC(=O)Nc1ncn(Cc2c(Cl)cccc2Cl)c2ncnc1-2` [N-[3-(2,6-Dichloro-benzyl)-3 H-purin-6-yl]-acetamide] displayed an IC50 of 1 to 20 µM.
For `CCC(=O)Nc1ncn(Cc2c(Cl)cccc2Cl)c2ncnc1-2` [N-[3-(2,6-Dichloro-benzyl)-3 H-purin-6-yl]-propionamide] the value was 1 to 20 µM; for `O=C(Nc1ncn(Cc2c(Cl)cccc2Cl)c2ncnc1-2)c1ccccc1` [N-[3-(2,6-Dichloro-benzyl)-3H-purin-6-yl]-benzamide], no less than 20 µM; for `O=C(Nc1ncn(Cc2c(Cl)cccc2Cl)c2ncnc1-2)c1ccncc1` [N-[3-(2,6-Dichloro-benzyl)-3H-purin-6-yl]-isonicotinamide], no more than 1 µM.
For `O=C(Nc1ncn(Cc2c(Cl)cccc2Cl)c2ncnc1-2)c1ccccn1` [Pyridine-2-carboxylic acid [3-(2,6-dichloro-benzyl)-3H-purin-6-yl]-amide] the value was 1 to 20 µM; for `Clc1ccc(Cn2cnc(NCc3ccco3)c3ncnc2-3)c(Cl)c1` [[3-(2,4-Dichloro-benzyl)-3H-purin-6-yl]-furan-2-ylmethyl-amine], no less than 20 µM.
With `Clc1ccc(Cl)c(Cn2cnc(NCc3ccco3)c3ncnc2-3)c1` [[3-(2,5-Dichloro-benzyl)-3H-purin-6-yl]-furan-2-ylmethyl-amine] the figure was 1 to 20 µM; with `Fc1ccccc1CNc1ncn(Cc2c(Cl)cccc2Cl)c2ncnc1-2` [[3-(2,6-Dichloro-benzyl)-3H-purin-6-yl]-(2-fluoro-benzyl)-amine], 1 to 20 µM.
For the compound `COCCNc1ncn(Cc2c(Cl)cccc2Cl)c2ncnc1-2` [[3-(2,6-Dichloro-benzyl)-3H-purin-6-yl]-(2-methoxy-ethyl)-amine], the IC50 was in the range of 1 to 20 µM.
`Fc1cccc(CNc2ncn(Cc3c(Cl)cccc3Cl)c3ncnc2-3)c1` [[3-(2,6-Dichloro-benzyl)-3H-purin-6-yl]-(3-fluoro-benzyl)-amine]: the 50% inhibitory concentration (IC50) is 1 to 20 µM.
For `COCCCNc1ncn(Cc2c(Cl)cccc2Cl)c2ncnc1-2` [[3-(2,6-Dichloro-benzyl)-3H-purin-6-yl]-(3-methoxy-propyl)-amine] the value was 1 to 20 µM; for `Fc1ccc(CNc2ncn(Cc3c(Cl)cccc3Cl)c3ncnc2-3)cc1` [[3-(2,6-Dichloro-benzyl)-3H-purin-6-yl]-(4-fluoro-benzyl)-amine], 1 to 20 µM.
For `Cc1ccc(CNc2ncn(Cc3c(Cl)cccc3Cl)c3ncnc2-3)cc1` [[3-(2,6-Dichloro-benzyl)-3H-purin-6-yl]-(4-methyl-benzyl)-amine] the value was 1 to 20 µM; for `CN(C)c1ncn(Cc2c(Cl)cccc2Cl)c2ncnc1-2` [[3-(2,6-Dichloro-benzyl)-3H-purin-6-yl]-dimethyl-amine], no less than 20 µM; for `CCNc1ncn(Cc2c(Cl)cccc2Cl)c2ncnc1-2` [[3-(2,6-Dichloro-benzyl)-3H-purin-6-yl]-ethyl-amine], 1 to 20 µM.
